Measurements: patent publication US10815540B2, “Treatments to eliminate HIV reservoirs and reduce viral load” (INSTITUT PASTEUR, priority 2017, dated 2020)
Read-outs that look alike come from different tables or passages of the source.

Experiments:
SIVmac251 = conditions: two weeks treatment with GA, in less than 2 months, chronic SIV infection, no anti-retroviral therapy, pilot study with 2 animals
Protocol: Correlation between the plasma viral load and the classical CD8 T cells (FIG. 9B) and with the HLA-E restricted CD8 T cells (FIG. 9C) were evaluated. The Spearman coefficients (r) and p-values are indicated.

HLA-E on CD4 T cells = system: HLA-E on CD4 T cells
From the text: Follow-up of the percentage of CD4 T cells expressing MHC-E on their surface (FIG. 7D).

[1] = system: CD32a^high CD4 T cells expressing HLA-E; conditions: spleen, 2 macaques treated with GA
From the text: FIG. 10A) Flow cytometry dot plots. CD32a^highHLA-E^+ CD4^+ T cells from AGM and macaques are shown in blue. […] MAC=macaque.

[2] = system: HLA-E restricted CD8 T cells; conditions: at euthanasia, GA treated animal versus chronically SIV infected AGM
[3] = system: HLA-E restricted CD8 T cells; conditions: at around day 25, chronically SIV-infected GA treated macaques, versus 20%
[4] = system: HLA-E restricted (NKG2A/C+) NK cells; conditions: at around day 25, chronically SIV-infected GA treated macaques, versus 20%
pathogenic CD4 T cells = conditions: in vivo; cited from earlier work
[5] = MS patients treated with GA for >10 years; cited from earlier work

In the case of “L-glutamic acid polymer with L-alanine, L-lysine and L-tyrosine, acetate (salt) [GA]”, the decrease of viremia (SIVmac251) is reported as no more than 2 logs, the “expression of HLA-E on CD4 T cells” value (HLA-E on CD4 T cells; animal the most advanced in disease, no HLA-E before treatment, continued to increase after treatment cessation) is reported as “increase HLA-E levels” and the “expression of HLA-E on CD4 T cells” value (HLA-E on CD4 T cells; animal with already very high expression before treatment) is reported as “remained as high”. The “effect on latently infected cells (CD32a^high CD4 T)” value [1] was “targets CD32a^high CD4 T cells expressing HLA-E”, the “levels of HLA-E restricted CD8 T cells in the intestine” value [2] was “comparable levels or even higher to those in AGM” and the “CD107a on HLA-E restricted CD8 T cells” value [3] was 60%. For the same substance, the “CD107a on NK cells” value [4] was 60%, the “efficacy in mouse model of inflammatory bowel diseases” value (pathogenic CD4 T cells) was “efficient” and the efficacy [5] was “long-term efficacy”.
